Counter-ions that a name gives are not always drawn.

The assay deals with T1, human recombinant ENPP1 (Homo sapiens, UniProt P22413).
T1 construct: purchased R&D Systems
T1 sequence (P22413 1-925): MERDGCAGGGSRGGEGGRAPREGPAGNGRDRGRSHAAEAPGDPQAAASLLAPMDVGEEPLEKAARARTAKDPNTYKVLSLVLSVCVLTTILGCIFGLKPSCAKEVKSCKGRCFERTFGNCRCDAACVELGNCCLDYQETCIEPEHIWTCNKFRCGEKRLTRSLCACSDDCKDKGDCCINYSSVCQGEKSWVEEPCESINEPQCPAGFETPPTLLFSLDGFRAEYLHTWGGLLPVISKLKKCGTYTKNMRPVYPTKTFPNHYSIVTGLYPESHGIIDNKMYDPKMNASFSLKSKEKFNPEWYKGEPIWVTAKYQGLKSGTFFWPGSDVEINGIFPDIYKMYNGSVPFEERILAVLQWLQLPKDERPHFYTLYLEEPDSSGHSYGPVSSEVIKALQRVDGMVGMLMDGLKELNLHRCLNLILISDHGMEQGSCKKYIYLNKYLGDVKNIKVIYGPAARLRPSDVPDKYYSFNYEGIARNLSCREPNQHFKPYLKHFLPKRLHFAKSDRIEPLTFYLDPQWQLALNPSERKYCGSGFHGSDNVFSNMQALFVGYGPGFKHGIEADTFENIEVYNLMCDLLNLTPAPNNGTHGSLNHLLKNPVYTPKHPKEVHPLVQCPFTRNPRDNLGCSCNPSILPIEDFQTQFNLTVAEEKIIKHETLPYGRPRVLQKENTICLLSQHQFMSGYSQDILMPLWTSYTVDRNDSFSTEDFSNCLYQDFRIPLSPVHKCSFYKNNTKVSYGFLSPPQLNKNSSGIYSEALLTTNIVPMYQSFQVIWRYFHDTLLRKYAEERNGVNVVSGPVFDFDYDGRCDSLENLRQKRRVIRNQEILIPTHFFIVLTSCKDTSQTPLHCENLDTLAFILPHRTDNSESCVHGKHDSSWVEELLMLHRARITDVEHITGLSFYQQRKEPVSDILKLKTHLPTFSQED
Put plainly: ENPP1 enzyme assay with cGAMP substrate (AMP-Glo). It counts as biochemical. Particulars: human recombinant ENPP1 3 ng per reaction, cGAMP 5 μM, 37° C., 90 minutes, AMP-Glo luminescence. The procedure: ENPP1 hydrolyzes nucleotides or nucleotide derivatives to yield nucleoside-5′-monophosphate and pyrophosphate. In addition, ENPP1 hydrolyzes 2′,3′-cGAMP to yield 5′-adenosine monophosphate (AMP) and 5′-guanosine monophosphate (GMP). AMP obtained through the above reaction was measured using an AMP-Glo® kit (Promega). The AMP-Glo® kit includes two reagents. The first reagent terminates the AMP-producing enzyme reaction, removes ATP, and converts the produced AMP into ADP. The second reagent converts ADP into ATP, the ATP being used to generate luminescence in the luciferase reaction. The amount of luminescence measured as described above is proportional to the amount of AMP produced by ENPP1.
The final reaction mixture for an assay system contains 50 mM Tris (pH 8.5) buffer, 250 mM NaCl, 0.5 mM CaCl2, 1 μM ZnCl2, 5% glycerol, and 1% DMSO. […] The reaction was initiated by addition of cGAMP (at a final concentration of 5 μM) and carried out at 37° C. for 90 minutes. At the end of the reaction, 10 μl of AMP-Glo first reagent was added to stop the reaction, and then the reaction mixture was stored at room temperature for 1 hour. After storage, the mixture was added with 20 μl of an AMP detection solution (a mixture of AMP-Glo II reagent and Kinase-Glo at a ratio of 1:100) and stored at room temperature for 1 hour. Luminescence signals were measured using a Victor® plate reader (Perkin Elmer). The maximal activity control (containing an enzyme and a substrate in the presence of 1% DMSO; MAX) and the minimal activity control (containing a substrate and 1% DMSO; MIN) were evaluated simultaneously. In each experiment, serially diluted reference ENPP1 inhibitors were tested together. IC50 values for % residual activity versus compound concentration were determined by fitting inhibition curves using a 3-parameter variable slope in GraphPad Prism® software.
As a reminder, the IC50 is the concentration that gives 50% inhibition. Turning to `O=S(=O)(NCC1CCN(c2ncnc3[nH]ccc23)CC1)c1cccs1` [Example 88, N-((1-(7H-pyrrolo[2,3-d]pyrimidin-4-yl)piperidin-4-yl)methyl)thiophene-2-sulfonamide], the IC50 lay in the range of 1000 to 10000 nM.
Consider `CC(C)n1ccc2c(N3CCC(CNS(N)(=O)=O)CC3)ncnc21` [Example 47, N-((1-(7-isopropyl-7H-pyrrolo[2,3-d]pyrimidin-4-yl)piperidin-4-yl)methyl)sulfamide], for which the IC50 was over 10000 nM.
As for `NS(=O)(=O)NCC1CCN(c2ncnc3[nH]ccc23)CC1` [Example 43, N-((1-(7H-pyrrolo[2,3-d]pyrimidin-4-yl)piperidin-4-yl)methyl)sulfamide], the half-inhibitory concentration (IC50) is under 1000 nM.
Regarding `NS(=O)(=O)NCc1cccc(-c2ncnc3[nH]ccc23)c1` [Example 34, N-(3-(7H-pyrrolo[2,3-d]pyrimidin-4-yl)benzyl)sulfamide hydrochloride], the 50% inhibitory concentration (IC50) is 1000 to 10000 nM.
Regarding `NS(=O)(=O)NCCC1CCN(c2ncnc3[nH]ccc23)CC1` [Example 54, N-(2-(1-(7H-pyrrolo[2,3-d]pyrimidin-4-yl)piperidin-4-yl)ethyl)sulfamide], the IC50 was under 1000 nM.
Regarding `NS(=O)(=O)NCC1CCN(c2ncnc3c2ccn3-c2cccnc2)CC1` [Example 84, N-((1-(7-(pyridin-3-yl)-7H-pyrrolo[2,3-d]pyrimidin-4-yl)piperidin-4-yl)methyl)sulfamide hydrochloride], the IC50 was in the range of 1000 to 10000 nM.
In the case of `CC(C)(C)OC(=O)NS(=O)(=O)NCc1ccc(-c2ccnc3[nH]ccc23)cc1` [Example 17, tert-butyl (N-(4-(1H-pyrrolo[2,3-b]pyridin-4-yl)benzyl)sulfamoyl)carbamate] it was over 10000 nM.
Consider `NS(=O)(=O)NCc1ccc(-c2ccnc3[nH]ccc23)cc1` [Example 24, N-(4-(1H-pyrrolo[2,3-b]pyridin-4-yl)benzyl)sulfamide hydrochloride], for which the IC50 was in the range of 1000 to 10000 nM.
The value for `CC(NS(N)(=O)=O)C1CCN(c2ncnc3[nH]ccc23)CC1` (stereo not shown) [Example 82, N-(1-(1-(7H-pyrrolo[2,3-d]pyrimidin-4-yl)piperidin-4-yl)ethyl)sulfamide hydrochloride] was under 1000 nM.
In the case of `NS(=O)(=O)NC1CCN(c2ncnc3[nH]ccc23)CC1` [Example 79, N-(1-(7H-pyrrolo[2,3-d]pyrimidin-4-yl)piperidin-4-yl)sulfamide hydrochloride] it was 1000 to 10000 nM; in that of `NCc1ccc(-c2ccnc3[nH]ccc23)cc1` [Example 10, (4-(1H-pyrrolo[2,3-b]pyridin-4-yl)phenyl)methenamine hydrochloride], over 10000 nM; in that of `Cc1c[nH]c2ncnc(N3CCC(CNS(N)(=O)=O)CC3)c12` [Example 78, N-((1-(5-methyl-7H-pyrrolo[2,3-d]pyrimidin-4-yl)piperidin-4-yl)methyl)sulfamide hydrochloride], under 1000 nM.
As to `CSc1nc(N2CCC(CCNS(N)(=O)=O)CC2)c2cc[nH]c2n1` [Example 53, N-(2-(1-(2-(methylthio)-7H-pyrrolo[2,3-d]pyrimidin-4-yl)piperidin-4-yl)ethyl)sulfamide], the IC50 was over 10000 nM.
As for `NS(=O)(=O)NCc1ccc(-c2ncnc3[nH]ccc23)cc1F` [Example 30, N-(2-fluoro-4-(7H-pyrrolo[2,3-d]pyrimidin-4-yl)benzyl)sulfamide hydrochloride], the IC50 was in the range of 1000 to 10000 nM.
Take `CC(NS(N)(=O)=O)c1ccc(-c2ncnc3[nH]ccc23)cc1` (stereo not shown) [Example 27, N-(1-(4-(7H-pyrrolo[2,3-d]pyrimidin-4-yl)phenyl)ethyl)sulfamide hydrochloride]: the IC50 is under 1000 nM.
For the compound `c1nc(N2CCC3(CCNC3)CC2)c2cc[nH]c2n1` [Example 66, 8-(7H-pyrrolo[2,3-d]pyrimidin-4-yl)-2,8-diazaspiro[4.5]decane hydrochloride], the IC50 was over 10000 nM.
In the case of `NS(=O)(=O)NCC1CCN(c2ncnc3c2ccn3-c2ccco2)CC1` [Example 83, N-((1-7-(furan-2-yl)-7H-pyrrolo[2,3-d]pyrimidin-4-yl)piperidin-4-yl)methyl)sulfamide hydrochloride], the IC50 was under 1000 nM.
Take `NS(=O)(=O)NCC1CCN(c2ncnc3c2ccn3-c2ccccc2)CC1` [Example 45, N-((1-(7-phenyl-7H-pyrrolo[2,3-d]pyrimidin-4-yl)piperidin-4-yl)methyl)sulfamide]: the IC50 was under 1000 nM.
`NCC1CCN(c2ncnc3[nH]ccc23)CC1` [Example 65, (1-(7H-pyrrolo[2,3-d]pyrimidin-4-yl)piperidin-4-yl)methenamine hydrochloride]: the 50% inhibitory concentration (IC50) was 1000 to 10000 nM.
In the case of `CC(C)(N)c1ccc(-c2ncnc3c2ccn3-c2cccnc2)cc1` [Example 15, hydrochloride] it was over 10000 nM; in that of `NCc1ccc(-c2ncnc3[nH]ccc23)cc1` [Example 11, (4-(7H-pyrrolo[2,3-d]pyrimidin-4-yl)phenyl)methenamine hydrochloride], 1000 to 10000 nM; in that of `NS(=O)(=O)N1CCC2(CCN(c3ncnc4[nH]ccc34)CC2)C1` [Example 80, 8-(7H-pyrrolo[2,3-d]pyrimidin-4-yl)-2,8-diazaspiro[4.5]decane-2-sulfamide hydrochloride], under 1000 nM.
With `CC(C)(NS(N)(=O)=O)c1ccc(-c2ncnc3[nH]ccc23)cc1` [Example 26, N-(2-(4-(7H-pyrrolo[2,3-d]pyrimidin-4-yl)phenyl)propan-2-yl)sulfamide hydrochloride], the IC50 is under 1000 nM.
Take `Cn1ccc2c(N3CCC(CNS(N)(=O)=O)CC3)ncnc21` [Example 44, N-((1 (7-methyl-7H-pyrrolo[2,3-d]pyrimidin-4-yl)piperidin-4-yl)methyl)sulfamide]: the IC50 was under 1000 nM.
With `NS(=O)(=O)N1CCc2cc(-c3ncnc4[nH]ccc34)ccc2C1` [Example 42, 6-(7H-pyrrolo[2,3-d]pyrimidin-4-yl)-3,4-dihydroisoquinoline-2(1H)-sulfonamide hydrochloride], the IC50 lay within 1000 to 10000 nM.
Take `Cc1cc2c(N3CCC(CNS(N)(=O)=O)CC3)ncnc2[nH]1` [Example 51, N-((1-(6-methyl-7H-pyrrolo[2,3-d]pyrimidin-4-yl)piperidin-4-yl)methyl)sulfamide]: the half-inhibitory concentration (IC50) was under 1000 nM.
The value for `CC(C)(N)c1ccc(-c2ncnc3[nH]ccc23)cc1` [Example 12, 2-(4-(7H-pyrrolo[2,3-d]pyrimidin-4-yl)phenyl)propan-2-amine hydrochloride] was over 10000 nM; that for `NS(=O)(=O)NCc1ccc(-c2ncnc3[nH]ccc23)cc1` [Example 25, N-(4-(7H-pyrrolo[2,3-d]pyrimidin-4-yl)benzyl)sulfamide hydrochloride] was 1000 to 10000 nM; that for `Cc1c[nH]c2ncnc(N3CCC(CN)CC3)c12` [Example 63, (1-(5-methyl-7H-pyrrolo[2,3-d]pyrimidin-4-yl)piperidin-4-yl)methenamine hydrochloride] was over 10000 nM.
Turning to `NS(=O)(=O)NCC1CCN(c2ncnc3c2ccn3C2CC2)CC1` [Example 46, N-((1-(7-cyclopropyl-7H-pyrrolo[2,3-d]pyrimidin-4-yl)piperidin-4-yl)methyl)sulfamide], the half-inhibitory concentration (IC50) was under 1000 nM.
The value for `NCC1CCN(c2ncnc3c2ccn3-c2ccco2)CC1` [Example 69, (1-(7-(furan-2-yl)-7H-pyrrolo[2,3-d]pyrimidin-4-yl)piperidin-4-yl)methenamine hydrochloride] was 1000 to 10000 nM.

The record behind these values is patent US12060352B2, “Substituted pyrrolo[2,3-d]pyrimidines having ectonucleotide pyrophosphatase-phosphodiesterase inhibitory activity” (KOREA INSTITUTE OF SCIENCE AND TECHNOLOGY, priority 2021, dated 2024).
